Test system: LG0703-F948-PDC complex spheroid viability
Assay: Anticancer human tumor LG0703-F948-PDC patient-derived lung adenocarcinoma cell line growth inhibition [RAS]
Settings: for IC50: curve of first compound; for viability, T/C: stronger effect = lower value
Description: RAS pathway inhibitors in Combinations in Complex Spheroids
A high-throughput screen of multi-cell type tumor spheroids was designed to identify active combinations of RAS pathway inhibitors and targeted small molecules. Complex spheroids include a stromal component modeled by human endothelial cells (HUVEC) and fibroblasts modeled by human mesenchymal stem cells (MSCs). The concentration ranges selected for each drug and investigational agent were based upon clinically achievable concentrations if the clinical Cmax of the agent was known.
Compounds. The drugs and investigational agents: abemaciclib (NSC768073), cobimetinib (NSC768068), divarasib (GDC6063, NSC841802), docetaxel (NSC628503), GDC-1971 (RLY-1971, NSC841576), gemcitabine (NSC613327), inavolisib (NSC800729), ipatasertib (NSC767898), KB-0742 (NSC834161), MRTX-1133 (NSC836407), osimertinib (NSC779217), RMC-4630 (NSC839698), RMC-6236 (NSC851965), RMC-6291 (NSC852671), Ro-3306 (NSC812927), sapanisertib (NSC764658), SN-38 (NSC673596), staurosporine (NSC755774), SY5609 (NSC837396), and tovorafenib (DAY101, NSC766906), were obtained from the National Cancer Institute (NCI) Developmental Therapeutics Program Chemical Repository. The FDA-approved anticancer drug set is available from the NCI Developmental Therapeutics Program. […] The stock solutions were prepared in dimethyl sulfoxide (DMSO, Sigma-Aldrich, St. Louis, MO, cat. D2650) at 800-fold the tested concentration and stored at -70 degrees C prior to their use. All drugs and investigational agents were tested over a range starting from a high concentration at or near the clinical Cmax and decreasing in half-log increments. If the clinical Cmax for an agent had not been determined, the highest concentration tested was 10 microM.
Cell Culture. All cells were maintained in an incubator at 37 degrees C and 5% CO2 with 95% humidity. The PDC lines were cultured according to standard operating procedures established by the NCI PDMR. All PDCs were thawed and cultured in Matrigel-coated flasks prepared with a working solution of 1X Ham's F-12 nutrient mix, without supplementation (Invitrogen, Waltham, MA, cat. 11765054), 100 U/mL penicillin-streptomycin (Invitrogen, cat. 15140122), and 2.5% Matrigel (Corning Inc., Corning, NY, cat. 354248) for the first three passages. The 362531-283-R-J2-PDC and 782815-120-R-J1-PDC lines were cultured in 6C/Colon 1B media, which includes advanced DMEM/F-12 (Thermo Fisher Scientific, cat. 12634028), 10 mM HEPES (Thermo Fisher Scientific, cat. 15630080), 1X GlutaMAX supplement (Thermo Fisher Scientific, cat. 35050061), 0.1 mg/mL primocin (InvivoGen, San Diego, CA, cat. ant-pm-2), 10% defined fetal bovine serum, heat inactivated (HyClone Laboratories Inc., Logan, UT, cat. SH30070.03HI), 50% L-WRN conditioned media (ATCC, cat. CRL-3276), 1.25 mM N-Acetyl-L-cysteine (Sigma-Aldrich, cat. A9165), 10 mM nicotinamide (Sigma-Aldrich, cat. N0636), 1X B-27 supplement (Thermo Fisher Scientific, cat. 17504044), 1X N-2 supplement (Thermo Fisher Scientific, cat. 17502048), 50 ng/mL human EGF (Thermo Fisher Scientific, cat. PHG0311), and 10 microM Y-27632 dihydrochloride (Tocris Bioscience, cat. 1254). The K12877-001-R-J1-PDC line was cultured in 6I media, which includes all 6C/Colon 1B media plus 10 ng/mL human FGF-10 (PeproTech, cat. 100-26), 1 ng/mL human FGF-2 (PeproTech, cat. 100-18B), 1 µM prostaglandin E2 (Tocris Bioscience, cat. 2296), […] hydrocortisone (Sigma-Aldrich, cat. H4001), and […] bovine insulin (Sigma-Aldrich, cat. I6634). The K86415-001-R-J1-PDC line was cultured in 6D media, which includes all 6C/Colon 1B media components minus the L-WRN conditioned media. The 485176-168-R4-J1-PDC was cultured in PANC media, which includes all 6C/Colon 1B media plus 100 ng/mL human FGF-10 (PeproTech, cat. 100-26), 500 nM SB-431542 (Selleckchem, cat. S1067), and 10 nM gastrin (Tocris Bioscience, cat. 3006). […]
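Note: spheroids exposed to agents for 7 days.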
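Throughout, for viability, T/C: 100% = DMSO vehicle wells.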

What does the source list for CC1(C)CCC(Nc2ncc(C(F)(F)F)c(-c3c[nH]c4c(P(C)(C)=O)c(C#N)ccc34)n2)CN1 (configuration not stated) + C#Cc1c(F)ccc2cc(O)cc(-c3ncc4c(N5CC6CCC(C5)N6)nc(OCC56CCCN5CC(F)C6)nc4c3F)c12?
IC50 (second compound 0.0316 µM): > 300 nM; IC50 (second compound 0.1 µM): > 300 nM; IC50 (second compound 0.316 µM): > 300 nM; IC50 (second compound 1 µM): > 300 nM; IC50 (second compound 3.16 µM): > 300 nM; IC50 (second compound 10 µM): 3.26 nM; viability, T/C (second compound 0.0316 µM, first compound 0.000949 µM): 83.1%; viability, T/C (second compound 0.0316 µM, first compound 0.003 µM): 65.2%; viability, T/C (second compound 0.0316 µM, first compound 0.00949 µM): 61.7%; viability, T/C (second compound 0.0316 µM, first compound 0.03 µM): 55.8%; viability, T/C (second compound 0.0316 µM, first compound 0.0949 µM): 63.3%; viability, T/C (second compound 0.0316 µM, first compound 0.3 µM): 67.2%; viability, T/C (second compound 0.1 µM, first compound 0.000949 µM): 93%; viability, T/C (second compound 0.1 µM, first compound 0.003 µM): 80.7%; viability, T/C (second compound 0.1 µM, first compound 0.00949 µM): 63.9%; viability, T/C (second compound 0.1 µM, first compound 0.03 µM): 69.5%; viability, T/C (second compound 0.1 µM, first compound 0.0949 µM): 76.9%; viability, T/C (second compound 0.1 µM, first compound 0.3 µM): 66.3%; viability, T/C (second compound 0.316 µM, first compound 0.000949 µM): 85.6%; viability, T/C (second compound 0.316 µM, first compound 0.003 µM): 58.7%; viability, T/C (second compound 0.316 µM, first compound 0.00949 µM): 62.5%; viability, T/C (second compound 0.316 µM, first compound 0.03 µM): 67.5%; viability, T/C (second compound 0.316 µM, first compound 0.0949 µM): 66%; viability, T/C (second compound 0.316 µM, first compound 0.3 µM): 71.2%; viability, T/C (second compound 1 µM, first compound 0.000949 µM): 62.3%; viability, T/C (second compound 1 µM, first compound 0.003 µM): 76.4%; viability, T/C (second compound 1 µM, first compound 0.00949 µM): 62.5%; viability, T/C (second compound 1 µM, first compound 0.03 µM): 59.5%; viability, T/C (second compound 1 µM, first compound 0.0949 µM): 68.9%; viability, T/C (second compound 1 µM, first compound 0.3 µM): 66.4%; viability, T/C (second compound 3.16 µM, first compound 0.000949 µM): 65.7%; viability, T/C (second compound 3.16 µM, first compound 0.003 µM): 57.5%; viability, T/C (second compound 3.16 µM, first compound 0.00949 µM): 45.1%; viability, T/C (second compound 3.16 µM, first compound 0.03 µM): 53%; viability, T/C (second compound 3.16 µM, first compound 0.0949 µM): 63.9%; viability, T/C (second compound 3.16 µM, first compound 0.3 µM): 54.4%; viability, T/C (second compound 10 µM, first compound 0.000949 µM): 58.3%; viability, T/C (second compound 10 µM, first compound 0.003 µM): 48.9%; viability, T/C (second compound 10 µM, first compound 0.00949 µM): 37.6%; viability, T/C (second compound 10 µM, first compound 0.03 µM): 47.7%; viability, T/C (second compound 10 µM, first compound 0.0949 µM): 50.3%; viability, T/C (second compound 10 µM, first compound 0.3 µM): 44.4%

Reference: PubChem BioAssay AID2060890 (Molecular Pharmacology Branch, DTP, NCI, 2025)
